The NIST ThermoML archive (doi:10.1021/je5009679)

Conditions: Liquid; for viscosity: Concentric cylinders viscometry

CCn1cc[n+](C)c1.CO[PH](=O)[O-] [1-ethyl-3-methylimidazolium methyl phosphonate]
101.33 kPa
Conditions | viscosity [mPa·s]
293.15 K | 156.4
303.15 K | 89.9
313.15 K | 56.11
323.15 K | 37.41
333.15 K | 26.3
343.15 K | 19.32
353.15 K | 14.71
363.15 K | 11.54
373.15 K | 9.289

Conditions | mass density [kg/m3]
293.15 K, 101.33 kPa, Vibrating tube method | 1198.3
303.15 K, 101.33 kPa, Vibrating tube method | 1191.7
311.2 K, 10000 kPa, Bellows volumetry | 1189.6
311.2 K, 20000 kPa, Bellows volumetry | 1193.3
311.2 K, 30000 kPa, Bellows volumetry | 1197.1
311.2 K, 40000 kPa, Bellows volumetry | 1200.8
311.2 K, 50000 kPa, Bellows volumetry | 1204.4
311.2 K, 60000 kPa, Bellows volumetry | 1207.8
311.2 K, 70000 kPa, Bellows volumetry | 1211.3
311.2 K, 80000 kPa, Bellows volumetry | 1214.6
311.2 K, 90000 kPa, Bellows volumetry | 1217.9
311.2 K, 100000 kPa, Bellows volumetry | 1221
311.2 K, 110000 kPa, Bellows volumetry | 1224.2
311.2 K, 120000 kPa, Bellows volumetry | 1227.2
311.2 K, 130000 kPa, Bellows volumetry | 1230.3
311.2 K, 140000 kPa, Bellows volumetry | 1233.1
311.2 K, 150000 kPa, Bellows volumetry | 1236.1
311.2 K, 160000 kPa, Bellows volumetry | 1238.9
311.2 K, 170000 kPa, Bellows volumetry | 1241.7
311.2 K, 180000 kPa, Bellows volumetry | 1244.5
311.2 K, 190000 kPa, Bellows volumetry | 1247.2
311.2 K, 200000 kPa, Bellows volumetry | 1249.9
313.15 K, 101.33 kPa, Vibrating tube method | 1185.3
323.15 K, 101.33 kPa, Vibrating tube method | 1178.8
330.9 K, 10000 kPa, Bellows volumetry | 1176.8
330.9 K, 20000 kPa, Bellows volumetry | 1180.9
330.9 K, 30000 kPa, Bellows volumetry | 1184.9
330.9 K, 40000 kPa, Bellows volumetry | 1188.8
330.9 K, 50000 kPa, Bellows volumetry | 1192.5
330.9 K, 60000 kPa, Bellows volumetry | 1196.1
330.9 K, 70000 kPa, Bellows volumetry | 1199.8
330.9 K, 80000 kPa, Bellows volumetry | 1203.3
330.9 K, 90000 kPa, Bellows volumetry | 1206.6
330.9 K, 100000 kPa, Bellows volumetry | 1210
330.9 K, 110000 kPa, Bellows volumetry | 1213.3
330.9 K, 120000 kPa, Bellows volumetry | 1216.4
330.9 K, 130000 kPa, Bellows volumetry | 1219.5
330.9 K, 140000 kPa, Bellows volumetry | 1222.5
330.9 K, 150000 kPa, Bellows volumetry | 1225.4
330.9 K, 160000 kPa, Bellows volumetry | 1228.3
330.9 K, 170000 kPa, Bellows volumetry | 1231.2
330.9 K, 180000 kPa, Bellows volumetry | 1234
330.9 K, 190000 kPa, Bellows volumetry | 1236.7
330.9 K, 200000 kPa, Bellows volumetry | 1239.6
333.15 K, 101.33 kPa, Vibrating tube method | 1172.5
343.15 K, 101.33 kPa, Vibrating tube method | 1166.1
351.3 K, 10000 kPa, Bellows volumetry | 1164.2
351.3 K, 20000 kPa, Bellows volumetry | 1168.7
351.3 K, 30000 kPa, Bellows volumetry | 1172.8
351.3 K, 40000 kPa, Bellows volumetry | 1176.9
351.3 K, 50000 kPa, Bellows volumetry | 1180.9
351.3 K, 60000 kPa, Bellows volumetry | 1184.7
351.3 K, 70000 kPa, Bellows volumetry | 1188.4
351.3 K, 80000 kPa, Bellows volumetry | 1192
351.3 K, 90000 kPa, Bellows volumetry | 1195.5
351.3 K, 100000 kPa, Bellows volumetry | 1198.9
351.3 K, 110000 kPa, Bellows volumetry | 1202.1
351.3 K, 120000 kPa, Bellows volumetry | 1205.4
351.3 K, 130000 kPa, Bellows volumetry | 1208.7
351.3 K, 140000 kPa, Bellows volumetry | 1211.8
351.3 K, 150000 kPa, Bellows volumetry | 1214.8
351.3 K, 160000 kPa, Bellows volumetry | 1217.8
351.3 K, 170000 kPa, Bellows volumetry | 1220.8
351.3 K, 180000 kPa, Bellows volumetry | 1223.7
351.3 K, 190000 kPa, Bellows volumetry | 1226.6
351.3 K, 200000 kPa, Bellows volumetry | 1229.5
353.15 K, 101.33 kPa, Vibrating tube method | 1159.9
363.15 K, 101.33 kPa, Vibrating tube method | 1153.8
371.3 K, 10000 kPa, Bellows volumetry | 1152.1
371.3 K, 20000 kPa, Bellows volumetry | 1156.2
371.3 K, 30000 kPa, Bellows volumetry | 1161
371.3 K, 40000 kPa, Bellows volumetry | 1165.2
371.3 K, 50000 kPa, Bellows volumetry | 1169.2
371.3 K, 60000 kPa, Bellows volumetry | 1173.3
371.3 K, 70000 kPa, Bellows volumetry | 1177.2
371.3 K, 80000 kPa, Bellows volumetry | 1180.9
371.3 K, 90000 kPa, Bellows volumetry | 1184.5
371.3 K, 100000 kPa, Bellows volumetry | 1188.2
371.3 K, 110000 kPa, Bellows volumetry | 1191.6
371.3 K, 120000 kPa, Bellows volumetry | 1195
371.3 K, 130000 kPa, Bellows volumetry | 1198.3
371.3 K, 140000 kPa, Bellows volumetry | 1201.6
371.3 K, 150000 kPa, Bellows volumetry | 1204.7
371.3 K, 160000 kPa, Bellows volumetry | 1207.9
371.3 K, 170000 kPa, Bellows volumetry | 1210.9
371.3 K, 180000 kPa, Bellows volumetry | 1213.9
371.3 K, 190000 kPa, Bellows volumetry | 1216.8
371.3 K, 200000 kPa, Bellows volumetry | 1219.8
373.15 K, 101.33 kPa, Vibrating tube method | 1147.6
391.2 K, 10000 kPa, Bellows volumetry | 1140.6
391.2 K, 20000 kPa, Bellows volumetry | 1144.9
391.2 K, 30000 kPa, Bellows volumetry | 1149.5
391.2 K, 40000 kPa, Bellows volumetry | 1154
391.2 K, 50000 kPa, Bellows volumetry | 1158.2
391.2 K, 60000 kPa, Bellows volumetry | 1162.3
391.2 K, 70000 kPa, Bellows volumetry | 1166.4
391.2 K, 80000 kPa, Bellows volumetry | 1170.4
391.2 K, 90000 kPa, Bellows volumetry | 1174.1
391.2 K, 100000 kPa, Bellows volumetry | 1177.9
391.2 K, 110000 kPa, Bellows volumetry | 1181.4
391.2 K, 120000 kPa, Bellows volumetry | 1184.9
391.2 K, 130000 kPa, Bellows volumetry | 1188.3
391.2 K, 140000 kPa, Bellows volumetry | 1191.6
391.2 K, 150000 kPa, Bellows volumetry | 1194.9
391.2 K, 160000 kPa, Bellows volumetry | 1198.1
391.2 K, 170000 kPa, Bellows volumetry | 1201.2
391.2 K, 180000 kPa, Bellows volumetry | 1204.2
391.2 K, 190000 kPa, Bellows volumetry | 1207.2
391.2 K, 200000 kPa, Bellows volumetry | 1210.2
411.1 K, 10000 kPa, Bellows volumetry | 1128.7
411.1 K, 20000 kPa, Bellows volumetry | 1133.3
411.1 K, 30000 kPa, Bellows volumetry | 1138.1
411.1 K, 40000 kPa, Bellows volumetry | 1142.8
411.1 K, 50000 kPa, Bellows volumetry | 1147.3
411.1 K, 60000 kPa, Bellows volumetry | 1151.7
411.1 K, 70000 kPa, Bellows volumetry | 1155.8
411.1 K, 80000 kPa, Bellows volumetry | 1159.9
411.1 K, 90000 kPa, Bellows volumetry | 1163.9
411.1 K, 100000 kPa, Bellows volumetry | 1167.6
411.1 K, 110000 kPa, Bellows volumetry | 1171.3
411.1 K, 120000 kPa, Bellows volumetry | 1174.9
411.1 K, 130000 kPa, Bellows volumetry | 1178.4
411.1 K, 140000 kPa, Bellows volumetry | 1181.8
411.1 K, 150000 kPa, Bellows volumetry | 1185.3
411.1 K, 160000 kPa, Bellows volumetry | 1188.5
411.1 K, 170000 kPa, Bellows volumetry | 1191.7
411.1 K, 180000 kPa, Bellows volumetry | 1194.8
411.1 K, 190000 kPa, Bellows volumetry | 1197.9
411.1 K, 200000 kPa, Bellows volumetry | 1201
